According to publication PMC9916770, “Lycorine Carbamate Derivatives for Reversing P-glycoprotein-Mediated Multidrug Resistance in Human Colon Adenocarcinoma Cells” (International Journal of Molecular Sciences, 2023):

How the values were obtained:
[1] = test system: Colo205 cells; assay: MTT antiproliferative assay, sensitive cells; assay type: cell-based, human; details: for IC50: Homo sapiens, COLO 205, sensitive Colo205, MTT, 72 h, mean ± SD; for SI (selectivity index) C/A: IC50 MRC-5 / IC50 Colo205
Procedure: (§1) The human colon adenocarcinoma cell lines Colo205 doxorubicin-sensitive (CCL-222, ATCC, Manassas, VA, USA) and the resistant Colo320/MDR-LRP expressing P-gp were purchased from LGC Promochem (Teddington, UK). The MRC-5 human embryonal lung fibroblast cell line (CCL-171, ATCC) was purchased from Sigma-Aldrich (Merck KGaA, Darmstadt, Germany). The human colon adenocarcinoma cells (Colo205 and Colo320) were cultured in an RPMI 1640 medium supplemented with 10% fetal bovine serum (FBS), 2 mM L-glutamine, 1 mM Na-pyruvate, and 100 mM HEPES. The semi-adherent human colon cancer cells were detached with a trypsin-Versene (EDTA) solution for 5 min at 37 °C. The MRC-5 human embryonal lung fibroblast cells were cultured in EMEM containing 4.5 g/L of glucose and supplemented with a non-essential amino acid mixture, a selection of vitamins, and 10% FBS. The cell lines were incubated at 37 °C, 5% CO2, and 95% air atmosphere.
(§2) The antiproliferative effect of the compounds was tested in decreasing serial dilutions of compounds (starting with 100 µM, then two-fold serial dilution) on human cell lines (Colo205, Colo320, and MRC-5) in 96-well flat-bottomed microtiter plates. Firstly, the compounds were diluted in 100 µL of the medium, and then 6 × 10^3 cells (Colo205 and Colo320), in 100 µL of medium, were added to each well, excluding the medium control wells. The MRC-5 adherent cell line was seeded in the EMEM medium for at least 4 h before the assay. The two-fold serial dilutions of the compounds were made in a separate plate (100–0.19 μM) and then transferred to the plates containing the adherent corresponding cell line. Culture plates were incubated at 37 °C for 72 h, and at the end of the incubation period, 20 μL of MTT (thiazolyl blue tetrazolium bromide) solution (from a 5 mg/mL stock solution) was added to each well and incubated for an additional 4 h. Then, 100 μL of sodium dodecyl sulfate (SDS) solution (10% SDS in 0.01 M HCl) was added to each well, and the plates were further incubated at 37 °C overnight in a CO2 incubator. Cell growth was determined by measuring the optical density (OD) at 540/630 nm with a Multiscan EX ELISA reader (Thermo Labsystems, Cheshire, WA, USA). […] IC50 values and the standard deviation (SD) of triplicate experiments were calculated by using GraphPad Prism 5 software for Windows. Doxorubicin (2 mg/mL, Teva Pharmaceuticals, Budapest, Hungary) was used as a positive control and the vehicle DMSO as the negative control. (1) IC50=[ODsample−ODmedium control/ODcell control−ODmedium control]×100
(§3) The relative resistance (RR) was calculated as the ratio of the IC50 value in the resistant cancer cells and the IC50 in the sensitive cancer cell lines. The selectivity indexes (SI) were calculated as the ratio of the IC50 values in the non-tumor cells and the IC50 in the cancer cell lines. The activity of the compounds toward cancer cells is considered strongly selective if the selectivity index (SI) value is higher than 6, moderately selective if 3 < SI < 6, slightly selective if 1 < SI < 3, and non-selective if SI is lower than 1.

[2] = test system: MRC-5 cells; assay: MTT antiproliferative assay, normal lung fibroblasts; assay type: cell-based; details: Homo sapiens, normal embryonal lung fibroblasts, 72 h, mean ± SD, read-out: IC50 MCR-5 (C)
Procedure: as §1, §2, §3

[3] = test system: Colo320 cells; assay: Checkerboard drug combination assay with doxorubicin; assay type: cell-based, human; details: for Type of interaction: Colo320; for CI at IC50 (combination index): Colo320, 50% growth inhibition
Procedure: The interaction of lycorine (1) and some selected derivatives (2, 5, 9, 13, 16, 19, 25, and 26) in combination with the chemotherapeutic drug doxorubicin was performed by the checkerboard assay, a widely used technique for assessing drug interactions, in resistant human Colo320 colon adenocarcinoma cells. The type of drug–drug interaction was evaluated by using the Chou and Talalay method for drug combination and expressed using the combination index (CI) values, and therefore evaluated as synergism (CI < 1), additive (CI = 1), or antagonist (CI > 1).
Drug combination interactions between the compounds and the chemotherapeutic drug doxorubicin were assessed by the checkboard microplate assay on the resistant Colo320, expressing the P-gp transporter. Doxorubicin was serially diluted in the horizontal direction in 100 µL, starting with 8.6 µM, and the compounds were subsequently diluted in the vertical direction in 50 µL. The starting concentration was determined based on the IC50 values. The cells were resuspended in a culture medium and distributed into each well in 50 µL, containing 6 × 10^3 cells, to a final volume of 200 µL per well. The plates were incubated for 72 h at 37 °C in a CO2 incubator, and the cell growth was determined by the MTT staining method, as described previously. Drug interactions were evaluated using CompuSyn software to plot 4 or 5 data points for each ratio (ref software). The results were expressed in terms of combination index (CI) values of 50% growth inhibition, in which a CI value close to 1 indicates additivity, while a CI < 1 is defined as synergy, and a CI > 1 as antagonism.

[4] = target: T1, recombinant human P-gp membranes (Homo sapiens, UniProt P08183); assay: P-gp-Glo ATPase activity assay; assay type: biochemical; details: 25 µM, basal activity = 100%
T1 construct: purchased Promega
T1 sequence (P08183 whole entry): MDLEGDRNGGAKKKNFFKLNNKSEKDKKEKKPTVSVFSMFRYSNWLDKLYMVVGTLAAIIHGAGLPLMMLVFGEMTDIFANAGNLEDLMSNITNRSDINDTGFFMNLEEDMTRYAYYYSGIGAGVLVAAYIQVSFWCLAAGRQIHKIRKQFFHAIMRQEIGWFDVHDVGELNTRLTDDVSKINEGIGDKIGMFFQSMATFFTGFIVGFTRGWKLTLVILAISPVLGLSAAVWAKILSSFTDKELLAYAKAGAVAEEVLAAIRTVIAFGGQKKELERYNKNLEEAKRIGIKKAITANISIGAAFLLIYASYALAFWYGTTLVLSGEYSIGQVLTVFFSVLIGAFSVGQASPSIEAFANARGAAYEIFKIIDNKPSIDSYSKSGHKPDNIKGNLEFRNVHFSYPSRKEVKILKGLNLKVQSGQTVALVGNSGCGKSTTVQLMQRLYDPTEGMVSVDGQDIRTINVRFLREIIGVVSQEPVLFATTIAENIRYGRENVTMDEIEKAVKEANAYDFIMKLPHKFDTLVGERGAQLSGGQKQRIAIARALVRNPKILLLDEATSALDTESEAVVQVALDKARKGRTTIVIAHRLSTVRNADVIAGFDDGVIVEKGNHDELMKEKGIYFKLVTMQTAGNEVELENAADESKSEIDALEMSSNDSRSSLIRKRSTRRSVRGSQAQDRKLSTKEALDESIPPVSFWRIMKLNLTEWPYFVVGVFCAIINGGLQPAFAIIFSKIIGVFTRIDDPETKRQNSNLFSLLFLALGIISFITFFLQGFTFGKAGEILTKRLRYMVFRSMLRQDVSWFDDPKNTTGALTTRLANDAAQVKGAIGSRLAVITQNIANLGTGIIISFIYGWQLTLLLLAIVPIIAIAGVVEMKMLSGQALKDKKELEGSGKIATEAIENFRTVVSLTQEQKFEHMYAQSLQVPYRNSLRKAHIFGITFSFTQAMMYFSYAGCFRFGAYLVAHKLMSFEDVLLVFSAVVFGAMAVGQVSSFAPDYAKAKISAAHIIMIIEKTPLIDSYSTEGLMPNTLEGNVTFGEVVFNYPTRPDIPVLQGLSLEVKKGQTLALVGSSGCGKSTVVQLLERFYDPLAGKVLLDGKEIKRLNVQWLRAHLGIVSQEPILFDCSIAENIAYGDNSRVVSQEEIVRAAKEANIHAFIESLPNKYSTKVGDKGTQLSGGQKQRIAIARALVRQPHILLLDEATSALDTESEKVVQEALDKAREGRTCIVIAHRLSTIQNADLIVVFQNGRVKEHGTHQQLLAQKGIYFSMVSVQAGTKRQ
Procedure: To evaluate the type of interaction between selected compounds and P-gp, namely to determine if they interacted as stimulators or inhibitors, the ATPase activity assay (P-gp.Glo^TM) was performed, using human P-gp membranes. This assay is based on the ATP consumption necessary for the efflux, obtained from ATP hydrolysis by light-generating firefly luciferase reaction. […] Vanadate is a selective and strong P-gp inhibitor. Therefore, the compounds can be classified as inhibitors or stimulators/substrates by comparing P-gp ATPase activity with the basal activity; stimulators give results higher than 100%, while inhibitors result below 100% of the basal activity. […] The results are presented in Figure 2 as the difference between the luciferase luminescence observed when treated with the tested compounds and with vanadate and compared with the basal activity (100%).
The P-glycoprotein ATPase assay was assessed using the P-gp-Glo^TM Assay System (Promega, WI, USA). The assay was performed according to the manufacturer’s instructions. Briefly, 20 µL of recombinant human P-gp membranes (1.25 mg/mL), expressing high levels of human P-gp, were incubated in 20 µL of P-gp-Glo^TM assay buffer for 5 min at 37 °C. […] The reaction was initiated by adding 10 µL of 25 mM MgATP, and incubated at 37 °C for 40 min. The reaction was stopped after adding 50 µL of ATP Detection Reagent, and the samples and controls were incubated at room temperature for 20 min. The emitted luciferase-generated luminescent signal was measured in a CLARIOstar Plus plate reader (BMG Labtech, Ortenberg, Germany) at 580 nm. The relative ATPase activity was calculated based on the ratio between the luminescence measured of the P-gp ATPase activity of each compound and the basal P-gp ATPase activity according to Equation (3): (3) Relative ATPase activity= Lumtreated−Lumuntreated /LumNa3VO4/Lumuntreated

[5] = test system: Colo320 cells; assay: MTT antiproliferative assay, resistant cells; assay type: cell-based, human; details: for IC50: Homo sapiens, COLO 320, resistant Colo320, MTT, 72 h, mean ± SD, read-out: IC50 Colo320 (B); for SI (selectivity index) C/B: IC50 MRC-5 / IC50 Colo320; for RR (relative resistance ratio) B/A: IC50 resistant Colo320 / IC50 sensitive Colo205
Procedure: as §1, §2, §3

Row | SMILES | IC50 [1] [µM] | CI at IC50 (combination index) [3] | Effect on basal P-gp ATPase activity [4] | IC50 [5] [µM] | SI (selectivity index) C/A [1] | IC50 [2] [µM] | Type of interaction [3] | SI (selectivity index) C/B [5] | RR (relative resistance ratio) B/A [5]
1 | O=C(NCc1ccc(Cl)cc1)OC1C=C2CCN3Cc4cc5c(cc4C(C1O)C23)OCO5 (stereo not shown) [Compound 2, Lycorine 2-yl (4-chlorobenzyl)carbamate] | 19.3 ± 0.87 | 0.88 | decreased the basal activity | 40.4 ± 1.9 | 3.01 | 58.1 ± 0.83 | Slight synergism | 1.44 | 2.09
2 | Cc1ccc(CNC(=O)OC2C=C3CCN4Cc5cc6c(cc5C(C2OC(=O)NCc2ccc(C)cc2)C34)OCO6)cc1 (stereo not shown) [Compound 5, Lycorine 1,2-diyl bis[(4-methylbenzyl)carbamate]] | > 100 | 0.13 | decreased the basal activity | 32.7 ± 0.62 | <0.057 | 5.75 ± 0.47 | Strong synergism | 0.17 | –
3 | O=C(OC1C=C2CCN3Cc4cc5c(cc4C(C1OC(=O)N1CCCCC1)C23)OCO5)N1CCCCC1 (stereo not shown) [Compound 16, Lycorine 1,2-diyl bis(piperidine-1-carboxylate)] | 55.4 ± 1.63 | 0.57 | – | 26.6 ± 1.37 | 1.06 | 59.2 ± 4.82 | Synergism | 2.22 | –
4 | CC(C)(C)c1ccc(CNC(=O)OC2C=C3CCN4Cc5cc6c(cc5C(C2O)C34)OCO6)cc1 (stereo not shown) [Compound 19, Lycorine 2-yl [4-(tert-butyl)benzyl]carbamate] | 26.5 ± 0.476 | 0.88 | decreased the basal activity | 7.64 ± 0.15 | 1.63 | 43.3 ± 0.75 | Slight synergism | 5.66 | 0.28
5 | O=C(NCCc1ccc(Cl)cc1)OC1C=C2CCN3Cc4cc5c(cc4C(C1O)C23)OCO5 (stereo not shown) [Compound 26, Lycorine 2-yl (4-chlorophenethyl) carbamate] | 53.9 ± 0.98 | 0.88 | decreased the basal activity | 37.9 ± 1.37 | 0.96 | 52.1 ± 3.09 | Slight synergism | 1.37 | –

Continued, in another order:

Row | IC50 [1] [µM] | CI at IC50 (combination index) [3] | Effect on basal P-gp ATPase activity [4] | IC50 [5] [µM] | SMILES | SI (selectivity index) C/A [1] | IC50 [2] [µM] | Type of interaction [3] | SI (selectivity index) C/B [5] | RR (relative resistance ratio) B/A [5]
6 | > 100 | 0.56 | decreased the basal activity | 10.4 ± 0.28 | O=C(NCCc1ccccc1)OC1C=C2CCN3Cc4cc5c(cc4C(C1OC(=O)NCCc1ccccc1)C23)OCO5 (stereo not shown) [Compound 9, Lycorine 1,2-diyl bis(phenethylcarbamate)] | <0.045 | – | Synergism | 0.43 | <0.10
7 | 47.7 ± 1.35 | 0.50 | decreased the basal activity | 3.14 ± 0.05 | O=C(NCCc1ccc(Cl)cc1)OC1C=C2CCN3Cc4cc5c(cc4C(C1OC(=O)NCCc1ccc(Cl)cc1)C23)OCO5 (stereo not shown) [Compound 25, Lycorine 1,2-diyl bis[(4-chlorophenethyl)carbamate]] | 0.099 | 4.75 ± 0.08 | Synergism | 1.51 | 0.065
